Reference: PubChem BioAssay (NCI)
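Growth conditions: 96-well plates. Treatment: test compound, 48 hours, 5 concentrations. Analysis: linear interpolation between bracketing concentrations; unreached endpoints set to highest concentration. Definition used: TGI = concentration required for complete inhibition of growth.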

Assays:
Assay in all cases: inhibition of tumour cell growth, NCI panel, 48 h
786-0 renal = tested on: 786-0 renal
A549 NSCLC = tested on: A549 NSCLC
CAKI-1 renal = tested on: CAKI-1 renal
CCRF-CEM leukemia = tested on: CCRF-CEM leukemia
COLO 205 colon = tested on: COLO 205 colon
DU-145 prostate = tested on: DU-145 prostate
EKVX NSCLC = tested on: EKVX NSCLC
HCC-2998 colon = tested on: HCC-2998 colon
HCT-15 colon = tested on: HCT-15 colon
HL-60(TB) leukemia = tested on: HL-60(TB) leukemia
HOP-62 NSCLC = tested on: HOP-62 NSCLC
HT29 colon = tested on: HT29 colon
IGROV1 ovarian = tested on: IGROV1 ovarian
K-562 leukemia = tested on: K-562 leukemia
KM12 colon = tested on: KM12 colon
LOX IMVI melanoma = tested on: LOX IMVI melanoma
M14 melanoma = tested on: M14 melanoma
MALME-3M melanoma = tested on: MALME-3M melanoma
MCF7 breast = tested on: MCF7 breast
MDA-N = tested on: MDA-N
MOLT-4 leukemia = tested on: MOLT-4 leukemia
NCI-H23 lung = tested on: NCI-H23 lung
OVCAR-8 ovarian = tested on: OVCAR-8 ovarian
PC-3 prostate = tested on: PC-3 prostate
RPMI-8226 leukemia = tested on: RPMI-8226 leukemia
SF-268 CNS = tested on: SF-268 CNS
SF-295 CNS = tested on: SF-295 CNS
SK-MEL-28 melanoma = tested on: SK-MEL-28 melanoma
SK-MEL-5 melanoma = tested on: SK-MEL-5 melanoma
SK-OV-3 ovarian = tested on: SK-OV-3 ovarian
SN12C renal = tested on: SN12C renal
SNB-75 CNS = tested on: SNB-75 CNS
SR leukemia = tested on: SR leukemia
SW-620 colon = tested on: SW-620 colon
T-47D breast = tested on: T-47D breast
TK-10 renal = tested on: TK-10 renal
UACC-257 melanoma = tested on: UACC-257 melanoma
UACC-62 melanoma = tested on: UACC-62 melanoma
A498 renal = tested on: A498 renal
ACHN renal = tested on: ACHN renal
BT-549 breast = tested on: BT-549 breast
HCT-116 colon = tested on: HCT-116 colon
HOP-92 NSCLC = tested on: HOP-92 NSCLC
HS 578T breast = tested on: HS 578T breast
MDA-MB-231 breast = tested on: MDA-MB-231 breast
MDA-MB-435 = tested on: MDA-MB-435
NCI-H226 lung = tested on: NCI-H226 lung
NCI-H460 lung = tested on: NCI-H460 lung
NCI-H522 lung = tested on: NCI-H522 lung
NCI/ADR-RES ovarian = tested on: NCI/ADR-RES ovarian
OVCAR-3 ovarian = tested on: OVCAR-3 ovarian
OVCAR-4 ovarian = tested on: OVCAR-4 ovarian
OVCAR-5 ovarian = tested on: OVCAR-5 ovarian
RXF 393 renal = tested on: RXF 393 renal
SF-539 CNS = tested on: SF-539 CNS
SK-MEL-2 melanoma = tested on: SK-MEL-2 melanoma
SNB-19 CNS = tested on: SNB-19 CNS
U251 CNS = tested on: U251 CNS
UO-31 renal = tested on: UO-31 renal

Measured: TGI

COc1ccc(C2=C(OC(=O)N(C)C)c3cccn3-c3cc(C(F)(F)F)ccc3S2)cc1
> 10 µM: 786-0 renal | A549 NSCLC | CAKI-1 renal | CCRF-CEM leukemia | COLO 205 colon | DU-145 prostate | EKVX NSCLC | HCC-2998 colon | HCT-15 colon | HL-60(TB) leukemia | HOP-62 NSCLC | HT29 colon | IGROV1 ovarian | K-562 leukemia | KM12 colon | LOX IMVI melanoma | M14 melanoma | MALME-3M melanoma | MCF7 breast | MDA-N | MOLT-4 leukemia | NCI-H23 lung | OVCAR-8 ovarian | PC-3 prostate | RPMI-8226 leukemia | SF-268 CNS | SF-295 CNS | SK-MEL-28 melanoma | SK-MEL-5 melanoma | SK-OV-3 ovarian | SN12C renal | SNB-75 CNS | SR leukemia | SW-620 colon | T-47D breast | TK-10 renal | UACC-257 melanoma | UACC-62 melanoma

COC(=O)Cc1ccc2c(c1)Sc1ccc(CC(=O)OC)cc1N2C
> 58.5 µM: UO-31 renal
> 63.5 µM: MCF7 breast
> 57.1 µM: LOX IMVI melanoma
99.6 µM: A498 renal
91.7 µM: BT-549 breast
> 68.3 µM: NCI/ADR-RES ovarian
58.1 µM: NCI-H522 lung
52 µM: CAKI-1 renal
> 87.1 µM: SF-295 CNS
> 100 µM: 786-0 renal | ACHN renal | DU-145 prostate | EKVX NSCLC | HCC-2998 colon | HCT-116 colon | HOP-62 NSCLC | HOP-92 NSCLC | HT29 colon | IGROV1 ovarian | K-562 leukemia | KM12 colon | M14 melanoma | MDA-MB-231 breast | MDA-MB-435 | MOLT-4 leukemia | NCI-H460 lung | OVCAR-3 ovarian | OVCAR-4 ovarian | OVCAR-5 ovarian | OVCAR-8 ovarian | PC-3 prostate | RPMI-8226 leukemia | RXF 393 renal | SF-268 CNS | SF-539 CNS | SK-MEL-2 melanoma | SK-MEL-28 melanoma | SK-OV-3 ovarian | SN12C renal | SNB-19 CNS | SW-620 colon | T-47D breast | TK-10 renal | U251 CNS | UACC-62 melanoma
> 77.9 µM: NCI-H23 lung
> 93.5 µM: NCI-H226 lung
> 95.7 µM: CCRF-CEM leukemia
> 79.1 µM: SR leukemia
> 89.3 µM: HS 578T breast
> 93.3 µM: HL-60(TB) leukemia
> 90.3 µM: A549 NSCLC
26.3 µM: SK-MEL-5 melanoma
> 92.6 µM: HCT-15 colon
80.6 µM: MALME-3M melanoma
> 93 µM: UACC-257 melanoma
53.8 µM: COLO 205 colon
> 93.4 µM: SNB-75 CNS
